What was measured:
[1] = system: adult patients with essential tremor; test: Example 16 Part B: QUEST total score; assay type: in vivo, human; conditions: for QUEST total score, LS mean change from randomization baseline (Day 42): Formula (I) group; for QUEST total score, LS mean change from pre-dose baseline: Part B OLT
Description: Patients were scheduled for Safety Follow-up on Day 70 (±1 day) in the clinic for the final clinical trial assessment.

[2] = Phase 1 single ascending dose (Part A) pharmacokinetics of 20 mg tablet formulation 3; conditions: human, in vivo, oral, single 60 mg, geometric mean
Description: This was a 2-part, Phase 1 double blind, placebo controlled trial to assess the safety, tolerability, pharmacokinetics, and pharmacodynamics (including the KSS, the KDT, the SQSQ and 24-hour EEG recordings), of single, ascending (Part A: 20, 40, and 60 mg) and multiple, ascending (Part B: 20 and 40 mg for 8 days) doses of the 20 mg tablet (formulation 3) in healthy participants. […] Variability in Cmax and AUC increased with increasing dose following a single oral dose of the 20 mg tablet formulation (formulation 3) (FIG. 16).

clinical = conditions: both, human, plasma, oral, 120 mg
Description: Each participant completed 3 study periods: Screening, Treatment period (12 or 31 days), and Safety follow-up.
Participants were healthy males and females between the ages of 18 and 55 years old.
In Part B, a randomized controlled trial was conducted.

[3] = system: sigma band EEG power during NREM sleep; test: EEG/PSG: sigma band EEG power during NREM sleep; assay type: in vivo, human; conditions: for NREM Sigma Power Ratio from Baseline / NREM sigma power from baseline, LS Means: N = 10
Description: The effects of multiple doses of a wider dose range (Part A: 5, 10, 20 mg; Part B: 60, 80, 100, 120 mg) on sigma band EEG power during NREM sleep were also evaluated as part of the protocol described in Example 11, above. 24-hour EEG/PSG recordings were performed the day before dosing (baseline day) and after dosing on Days 4, 8, and 12 (for Part A) or Days 10, 17, 24, and 31 (for Part B). Part B also included placebo-treated participants for statistical comparisons.
The pharmacokinetic/pharmacodynamic (PKPD) effects of administration a compound of formula (II) on EEG were also evaluated. The recording of the NREM sigma absolute power was reported as a single summary value of a single night of sleep following each dose on pre-specified days (baseline and Days 4, 8 and 12 for Example 11, Part A and Days 10, 17, 24, and 31 for Part B, as set forth in Tables 22 and 23, above. Each NREM sigma absolute power value was paired with a model predicted average plasma concentration (Cave) that corresponded to the 24-hour EEG recording period on the respective study day. For example, if the period of EEG recording for an individual was from 6 am on Day 4 to 6 am on Day 5, then the corresponding Cave was calculated as the average of the individual's model-predicted concentrations (sampled every 30 minutes) from that same time period. The resulting PKPD data were analyzed in a mixed-effects modelling framework using NONlinear Mixed Effects Modeling (NONMEM) software. The change from baseline NREM sigma absolute power was specified as the outcome and the primary explanatory variable was the Cave of a compound of formula (II).
The population PK model was used to generate Cave for NREM sigma absolute power and concentrations for EO and EC gamma absolute power. For NREM sigma absolute power, the Cave was computed for the final day of each dose level over the EEG collection interval. For EO and EC gamma absolute power, concentrations at 4 hours post-dose and 23.75 hours post-dose were generated on the final day of each dose level. The final population PKPD models for NREM sigma absolute power and EO and EC gamma absolute power were then used to generate corresponding EEG responses.

Structure (SMILES): CC(C)(C)NC(=O)CN1CCC(CNC(=O)c2cc(F)cc(Cl)c2)CC1 [compound of formula (I), N-((1-(2-(tert-butylamino)-2-oxoethyl)piperidin-4-yl)methyl)-3-chloro-5-fluorobenzamide]
- QUEST total score, LS mean change from randomization baseline (Day 42) ([1]; Day 70 follow-up): 1.741
- QUEST total score, LS mean change from pre-dose baseline ([1]; Day 7): −0.561
- QUEST total score, LS mean change from pre-dose baseline ([1]; Day 21): −5.933
- QUEST total score, LS mean change from pre-dose baseline ([1]; Day 42): −8.203
- QUEST total score, LS mean change from randomization baseline (Day 42) ([1]; Part B RWD, Day 56): −1.322
- Cmax ([2]; N = 6): ~130 ng/mL
- AUC ([2]; read-out: AUC24): ~1910 ng·h/mL
- AUC (clinical): ≥ 4650 ng·h/mL
- Cmax (clinical): ≥ 390 ng/mL

Structure (SMILES): CC(C)(C)NC(=O)CN1CCC(CNC(=O)c2cc(F)cc(Cl)c2)CC1.Cl [compound of formula (II), N-((1-(2-(tert-butylamino)-2-oxoethyl)piperidin-4-yl)methyl)-3-chloro-5-fluorobenzamide hydrochloride]
- sigma band EEG power during NREM sleep, change from baseline ([3]; 5-120 mg, plateaued after Day 17 (80 mg)): dose-dependent decrease
- NREM sigma power, Formula (II) v. Placebo Difference ([3]; Day 10): −0.597
- NREM sigma power, Formula (II) v. Placebo Ratio ([3]; Day 10): 0.550
- NREM Sigma Power Ratio from Baseline ([3]; Day 10 (60 mg)): 0.581
- NREM sigma power from baseline, LS Means ([3]; Day 10 (60 mg)): −0.542
- NREM sigma power, Formula (II) v. Placebo Difference ([3]; Day 17): −0.697
- NREM sigma power, Formula (II) v. Placebo Ratio ([3]; Day 17): 0.498
- NREM Sigma Power Ratio from Baseline ([3]; Day 17 (80 mg)): 0.646
- NREM sigma power from baseline, LS Means ([3]; Day 17 (80 mg)): −0.437
- NREM sigma power, Formula (II) v. Placebo Difference ([3]; Day 24): −0.729
- NREM sigma power, Formula (II) v. Placebo Ratio ([3]; Day 24): 0.482
- NREM Sigma Power Ratio from Baseline ([3]; Day 24 (100 mg)): 0.498
- NREM sigma power from baseline, LS Means ([3]; Day 24 (100 mg)): −0.698
- NREM sigma power, Formula (II) v. Placebo Difference ([3]; Day 31): −0.679
- NREM sigma power, Formula (II) v. Placebo Ratio ([3]; Day 31): 0.507
- NREM Sigma Power Ratio from Baseline ([3]; Day 31 (120 mg)): 0.574
- NREM sigma power from baseline, LS Means ([3]; Day 31 (120 mg)): −0.556

From patent US20250295646A1, “METHODS OF USE OF T-TYPE CALCIUM CHANNEL MODULATORS” (Praxis Precision Medicines, Inc., priority 2022, published 2025)
